In publication PMC5681660, “Reduced hepatitis B and D viral entry using clinically applied drugs as novel inhibitors of the bile acid transporter NTCP” (Scientific Reports, 2017):
Structures can show the parent of a compound that is named as a salt.

Columns and labels:
[1] = molecular target: T1, human NTCP (Homo sapiens, UniProt Q14973); assay: Screening taurocholate uptake assay (96-well, [14C]taurocholate, 10 µM drug); conditions: for B-score functional assay: 10 µM drug
T1 sequence (Q14973 1-349): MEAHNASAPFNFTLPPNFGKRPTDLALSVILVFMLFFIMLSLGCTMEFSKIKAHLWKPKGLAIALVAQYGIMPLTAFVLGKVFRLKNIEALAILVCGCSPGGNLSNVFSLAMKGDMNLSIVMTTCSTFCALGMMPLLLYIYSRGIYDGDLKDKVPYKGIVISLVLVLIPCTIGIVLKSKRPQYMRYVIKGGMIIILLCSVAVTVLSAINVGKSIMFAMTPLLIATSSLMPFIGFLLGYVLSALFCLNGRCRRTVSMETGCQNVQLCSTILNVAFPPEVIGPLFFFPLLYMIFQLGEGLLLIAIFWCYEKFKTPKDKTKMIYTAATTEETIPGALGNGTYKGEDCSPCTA

[2] = molecular target: T1, human NTCP; assay: Screening fluorescent competitive Myrcludex B-FITC binding assay (96-well, 10 µM drug); conditions: 10 µM drug
[3] = combined ranking from functional and binding screening assays
[4] = screen, Myrcludex B-FITC binding
[5] = Prestwick library screen, B-score of taurocholate uptake
[6] = combined ranking from functional and binding assay B-scores
[7] = Prestwick library screen, B-score of Myrcludex B-FITC binding
[8] = Prestwick library screen, taurocholate uptake
[9] = ranking score beside the functional and binding assay B-scores of the screen
[10] = Prestwick library screen, Myrcludex B-FITC binding

## CCCNC(C)(C)COC(=O)c1ccccc1 [Meprylcaine hydrochloride]
[1]; [3]
  Ranking score: 382.481
[1]; screen, taurocholate uptake
  B-score functional assay: 0.763
[2]; [4]
  B-score binding assay: -1.608

## S=c1[nH]cnc2nc[nH]c12 [Mercaptopurine]
[1]; [3]
  Ranking score: 451.727
[1]; screen, taurocholate uptake
  B-score functional assay: -0.084
[2]; [4]
  B-score binding assay: -0.534

## C[C@@H](O)[C@H]1C(=O)N2C(C(=O)O)=C(S[C@@H]3CN[C@H](C(=O)N(C)C)C3)[C@H](C)[C@H]12 [Meropenem]
[1]; [5]
  B-score functional assay: 0.4
[1]; [6]
  Ranking score: 900.139
[2]; [7]
  B-score binding assay: 0.55

## Nc1ccc(O)c(C(=O)O)c1 [Mesalamine]
[1]; [8]
  B-score functional assay: -0.331
[1]; [9]
  Ranking score: 739.887
[2]; [10]
  B-score binding assay: 2.828

## CN1CCCCC1CCN1c2ccccc2Sc2ccc([S+](C)[O-])cc21 (stereo not drawn) [Mesoridazine besylate]
[1]; [5]
  B-score functional assay: 2.438
[1]; [6]
  Ranking score: 892.285
[2]; [7]
  B-score binding assay: 0.002

## CN(C)C(=N)N=C(N)N [Metformin hydrochloride]
[1]; [8]
  B-score functional assay: -0.092
[1]; [9]
  Ranking score: 761.884
[2]; [10]
  B-score binding assay: 1.144

## CC(=O)/N=c1/sc(S(N)(=O)=O)nn1C [Methazolamide]
[1]; [5]
  B-score functional assay: 2.368
[1]; [6]
  Ranking score: 849.129
[2]; [7]
  B-score binding assay: -0.041

## C1N2CN3CN1CN(C2)C3 [Methenamine]
[1]; [5]
  B-score functional assay: 1.472
[1]; [6]
  Ranking score: 906.386
[2]; [7]
  B-score binding assay: 0.067

## Cn1cc[nH]c1=S [Methimazole]
[1]; [5]
  B-score functional assay: 0.936
[1]; [6]
  Ranking score: 1068.39
[2]; [7]
  B-score binding assay: 1.226

## CSc1ccc2c(c1)C(N1CCN(C)CC1)Cc1ccccc1S2.O=C(O)/C=C\C(=O)O (stereo not drawn) [Methiothepin maleate]
[1]; [3]
  Ranking score: 441.5
[1]; screen, taurocholate uptake
  B-score functional assay: 4.841
[2]; [4]
  B-score binding assay: -1.545

## CN(Cc1cnc2nc(N)nc(N)c2n1)c1ccc(C(=O)N[C@@H](CCC(=O)O)C(=O)O)cc1 [Methotrexate]
[1]; [8]
  B-score functional assay: 0.045
[1]; [9]
  Ranking score: 661.494
[2]; [10]
  B-score binding assay: -0.007

## COc1ccc2c(c1)N(C[C@H](C)CN(C)C)c1ccccc1S2.O=C(O)/C=C\C(=O)O [Methotrimeprazine maleat salt]
[1]; [8]
  B-score functional assay: 1.773
[1]; [9]
  Ranking score: 734.211
[2]; [10]
  B-score binding assay: -0.27

## C[N+]1(C)[C@@H]2CC[C@H]1C[C@@H](OC(=O)C(CO)c1ccccc1)C2 (stereo partly drawn) [Methylatropine nitrate]
[1]; [3]
  Ranking score: 357.004
[1]; screen, taurocholate uptake
  B-score functional assay: -0.076
[2]; [4]
  B-score binding assay: -1.066

## C[C@](N)(Cc1ccc(O)c(O)c1)C(=O)O [Methyldopa (L,-)]
[1]; [8]
  B-score functional assay: 1.009
[1]; [9]
  Ranking score: 793.128
[2]; [10]
  B-score binding assay: -0.046

## CCOC(=O)[C@@](C)(N)Cc1ccc(O)c(O)c1 [Methyldopate hydrochloride]
[1]; [5]
  B-score functional assay: 0.673
[1]; [6]
  Ranking score: 1088.5
[2]; [7]
  B-score binding assay: 2.397

## CC[C@@H](CO)NC(=O)[C@@H]1C=C2c3cccc4[nH]cc(c34)C[C@H]2N(C)C1 [Methylergometrine maleate]
[1]; [5]
  B-score functional assay: 0.963
[1]; [6]
  Ranking score: 1029.08
[2]; [7]
  B-score binding assay: 0.851

## C[C@H]1NC(=O)NC1=O [Methylhydantoin-5-(D)]
[1]; [3]
  Ranking score: 290.241
[1]; screen, taurocholate uptake
  B-score functional assay: 0.047
[2]; [4]
  B-score binding assay: -1.862

## CC1NC(=O)NC1=O (stereo not drawn) [Methylhydantoin-5-(L)]
[1]; [8]
  B-score functional assay: 0.737
[1]; [9]
  Ranking score: 746.749
[2]; [10]
  B-score binding assay: -0.07

## C[C@H]1C[C@@H]2[C@H]([C@@H](O)C[C@@]3(C)[C@H]2CC[C@]3(O)C(=O)CO)[C@@]2(C)C=CC(=O)C=C12 [Methylprednisolone, 6-alpha]
[1]; [5]
  B-score functional assay: 0.477
[1]; [6]
  Ranking score: 941.018
[2]; [7]
  B-score binding assay: 0.779

## Cc1cc2c(cc1S(N)(=O)=O)S(=O)(=O)CCC2 [Meticrane]
[1]; [5]
  B-score functional assay: 3.166
[1]; [6]
  Ranking score: 878.911
[2]; [7]
  B-score binding assay: -0.016
